Laboratory results taken from US20220204449A1, “BIASED AGONISTS OF OPIOID RECEPTORS” (ILDONG PHARMACEUTICAL CO., LTD., priority 2020, published 2022).
Entries after “also recorded” stand apart in the source; their conditions may differ.

Tests used:
Assay type in all cases: cell-based
[1] = target: T1, human μ-opioid receptor, OPRM (Homo sapiens, UniProt P35372); assay: cAMP accumulation assay (Gi pathway), OPRM cell line; conditions: for OPRM Gi Hill slope / Emax / EC50: Table 1; for OPRM Gi Hill slope: cAMP concentration-response curve; for Emax / EC50: cAMP; for Emax: normalized to reference agonist DAMGO
T1 construct: host or cells: HEK-293 overexpressing β-arrestin2 fused to a β-galactosidase fragment
T1 sequence (P35372 whole entry, the tested form may be a part): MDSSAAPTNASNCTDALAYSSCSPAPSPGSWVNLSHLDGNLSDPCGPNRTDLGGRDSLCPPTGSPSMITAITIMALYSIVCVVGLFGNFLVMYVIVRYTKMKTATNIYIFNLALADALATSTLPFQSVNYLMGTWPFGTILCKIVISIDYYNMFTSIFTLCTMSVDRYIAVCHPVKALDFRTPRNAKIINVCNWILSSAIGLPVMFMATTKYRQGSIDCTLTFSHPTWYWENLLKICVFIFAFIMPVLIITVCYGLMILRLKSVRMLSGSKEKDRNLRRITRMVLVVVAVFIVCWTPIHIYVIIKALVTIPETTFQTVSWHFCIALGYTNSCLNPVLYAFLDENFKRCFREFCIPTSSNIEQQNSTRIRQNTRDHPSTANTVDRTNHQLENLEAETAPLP
Source text: (§1) Human embryonic kidney 293 (HEK-293) cells which transfected overexpress (3-arrestin2 fused β-galactosidase fragment were purchased from DiscoverX. Human OPRM1 gene (NM 000914.3, encoding human μ-opioid receptor, OPRM) and Human OPRD1 gene (NM 000911.3, encoding human δ-opioid receptor, OPRD) were fused to a pCMV-ProLink plasmid which contains complementary β-galactosidase fragment purchased from DiscoverX. To generate human OPRM1 or OPRD1 expression cell lines, HEK-293 cells were transfected to prepared plasmid and grown in DMEM medium with 10% fetal bovine serum, 150 μg/mL Hygromycin B and 500 μg/mL G418.
(§2) Cyclic Adenosine Monophosphate (cAMP) Accumulation
(§3) The agonist's efficacy to the G protein pathway was determined by changes in the cAMP level using the Cisbio cAMP detection kit. The cells used in cAMP assays are the same cell line as used in the β-arrestin 2 assays. The human opioid receptor activates the Gαi so intracellular cAMP accumulation is inhibited. Cisbio detection kit uses labeled cAMP and antibody. This system proceeds to compete with endogenous cAMP. If Gαi is activated, intracellular cAMP decreases. This assures that labeled-cAMP binds more with the antibody so that time-resolved fluorescence […].
(§4) cAMP and β-arrestin assays described above were conducted to decide whether candidate compounds were μ- and/or δ-opioid receptor bias agonists for the G-protein pathway. All assays produced the concentration-response curve, and the curve data was validated by a quality control factor named Z′ factor. Because half-maximal effect concentration (EC50) depends on the population of receptors, the maximal asymptote of the concentration curve was used. Efficacy data of candidates was normalized by comparison to reference agonists DAMGO and SNC80 for OPRM and OPRD.
(§5) The hill slope describes the steepness of the curve. […] We set the appropriate interval of hill slope as 0.8<n<1.5 which maintains the sigmoidal curve shape.

[2] = target: T2, human δ-opioid receptor, OPRD (Homo sapiens, UniProt P41143); assay: cAMP accumulation assay (Gi pathway), OPRD cell line; conditions: for OPRD Gi Hill slope: cAMP concentration-response curve; for Emax: normalized to reference agonist SNC80
T2 construct: host or cells: HEK-293 overexpressing β-arrestin2 fused to a β-galactosidase fragment
T2 sequence (P41143 whole entry, the tested form may be a part): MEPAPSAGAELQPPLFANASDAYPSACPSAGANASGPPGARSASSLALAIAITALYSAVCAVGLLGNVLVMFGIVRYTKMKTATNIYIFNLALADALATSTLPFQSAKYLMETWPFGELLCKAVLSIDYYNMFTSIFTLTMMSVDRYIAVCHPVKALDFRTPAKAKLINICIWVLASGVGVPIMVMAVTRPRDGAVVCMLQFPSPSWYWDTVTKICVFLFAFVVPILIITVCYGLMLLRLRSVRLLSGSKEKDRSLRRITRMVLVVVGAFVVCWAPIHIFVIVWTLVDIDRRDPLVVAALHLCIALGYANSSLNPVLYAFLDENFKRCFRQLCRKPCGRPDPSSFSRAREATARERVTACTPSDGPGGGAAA
Source text: as §1, §2, §3, §4, §5

[3] = target: T1, human μ-opioid receptor, OPRM; assay: PathHunter β-arrestin 2 assay, OPRM cell line
Source text: as §1
(§6) The PathHunter enzyme assay was performed to measure the agonist's capability of β-arrestin 2 pathway activation. When agonists bind to G protein-coupled receptor (GPCR), the receptor pathway is sequentially activated from G protein to β-arrestin 2 recruitment.
(§7) Because […] β-arrestin 2 and C-terminal of GPCR have a fragment of β-galactosidase, recruitment of β-arrestin 2 to GPCR forms the whole β-galactosidase. The functionality of the whole β-galactosidase is detected by chemiluminescence (FlexStation3, Molecular Devices).
as §4

[4] = target: T2, human δ-opioid receptor, OPRD; assay: PathHunter β-arrestin 2 assay, OPRD cell line
Source text: as §1, §6, §7, §4

[5] = target: T1, human μ-opioid receptor, OPRM; assay: Dominant assay: cAMP assay with/without irreversible antagonist β-FNA, OPRM cell line; conditions: for maximal response on decreasing receptor population (dominant tendency), in words: OPRM cell lines, β-FNA
Source text: (§8) To confirm the agonist's efficacy in a nature-like system, we need inactivation of target receptors on the cell membrane. Most cell lines have an abundant target receptor population (also known as spare receptors). Therefore, agonists have more opportunity to constitute agonist-receptor conformation. In this environment, not only full agonists but also partial agonists can reach maximal response.
(§9) If the partial agonist is selected as a full agonist, translational in vivo research will likely fail.
(§10) Non-competitive, irreversible antagonists can be applicable to judge the pharmacological character of agonists because they permanently decrease the receptor population in the cell line system. β-FNA or β-CNA is used as a non-competitive and irreversible antagonist for OPRM, OPRD. Before cAMP assay, cells were incubated with β-FNA or β-CNA for 40 minutes. Afterwards, the procedure is the same.
(§11) If a partial agonist compound acts as a full agonist due to receptor population (pseudo full agonist), it cannot sustain maximal response with reduced receptor population. However, a full agonist compound maintains their maximal response even though increased EC50.

[6] = target: T2, human δ-opioid receptor, OPRD; assay: Dominant assay: cAMP assay with/without irreversible antagonist β-CNA, OPRD cell line; conditions: for maximal response on decreasing receptor population (dominant tendency), in words: OPRD cell lines, β-CNA; for completeness of concentration-response curve, in words: OPRD system
Source text: as §8, §9, §10, §11

[7] = Example 3, Tables 5-7, read-out: OPRM β-ARR2 Emax (%)
[8] = Table 1, normalized to reference agonist DAMGO, read-out: OPRM arrestin Emax, %
[9] = Example 3, Tables 5-7, read-out: OPRD β-ARR2 Emax (%)
[10] = Table 1, normalized to reference agonist SNC80, read-out: OPRD arrestin Emax, %
[11] = addition of β-FNA, Example 3, Tables 5-7, read-out: OPRM Gi β-FNA (+) Emax (%)
[12] = no addition of β-FNA, Example 3, Tables 5-7, read-out: OPRM Gi β-FNA (−) Emax (%)
[13] = addition of β-CNA, Example 3, Tables 5-7, read-out: OPRD Gi β-CNA (+) Emax (%)
[14] = no addition of β-CNA, Example 3, Tables 5-7, read-out: OPRD Gi β-CNA (−) Emax (%)
[15] = Table 1, cAMP, read-out: OPRD Gi EC50
[16] = addition of β-CNA, Example 3, Tables 5-7, read-out: OPRD Gi β-CNA (+) EC50
[17] = no addition of β-CNA, Example 3, Tables 5-7, read-out: OPRD Gi β-CNA (−) EC50
[18] = addition of β-FNA, Example 3, Tables 5-7, read-out: OPRM Gi β-FNA (+) EC50
[19] = addition of β-FNA, repeated dominant assay, Example 4, Tables 8-10, read-out: OPRM Gi β-FNA (+) EC50
[20] = addition of β-FNA, repeated dominant assay, Example 4, Tables 8-10, read-out: OPRM Gi β-FNA (+) Emax (%)
[21] = no addition of β-FNA, Example 3, Tables 5-7, read-out: OPRM Gi β-FNA (−) EC50
[22] = no addition of β-FNA, repeated dominant assay, Example 4, Tables 8-10, read-out: OPRM Gi β-FNA (−) EC50
[23] = no addition of β-FNA, repeated dominant assay, Example 4, Tables 8-10, read-out: OPRM Gi β-FNA (−) Emax (%)
[24] = addition of β-CNA, repeated dominant assay, Example 4, Tables 8-10, read-out: OPRD Gi β-CNA (+) EC50
[25] = addition of β-CNA, repeated dominant assay, Example 4, Tables 8-10, read-out: OPRD Gi β-CNA (+) Emax (%)
[26] = no addition of β-CNA, repeated dominant assay, Example 4, Tables 8-10, read-out: OPRD Gi β-CNA (−) EC50
[27] = no addition of β-CNA, repeated dominant assay, Example 4, Tables 8-10, read-out: OPRD Gi β-CNA (−) Emax (%)

| Compound | OPRM Gi Hill slope [1] | Emax [1] | OPRD Gi Hill slope ([2]; Table 1) | Emax ([2]; Table 1, cAMP) | Emax [3, 7] | Emax [3, 8] | Emax [4, 9] | Emax [4, 10] | maximal response on decreasing receptor population (dominant tendency), in words [5] | Emax [5, 11] | Emax [5, 12] | maximal response on decreasing receptor population (dominant tendency), in words [6] | completeness of concentration-response curve, in words [6] | Emax [6, 13] | Emax [6, 14] | EC50 [2, 15] | EC50 [6, 16] | EC50 [6, 17] | EC50 [1] | EC50 [5, 18] | also measured |
| --- | --- | --- | --- | --- | --- | --- | --- | --- | --- | --- | --- | --- | --- | --- | --- | --- | --- | --- | --- | --- | --- |
| COc1ccsc1CNCC[C@@]1(c2ccccn2)CCOC2(CCCC2)C1 [TRV130, reference compound] | 0.35 | 101% | 1.28 | 63.4% | 2.4% | 2.41% | 9.6% | 9.6% | susceptible to decreasing receptor populations than DAMGO; also recorded: attenuates the efficacy; also recorded: more susceptible to decreasing receptor populations than DAMGO | 56.3% | 89.5% | more susceptible to decreasing receptor populations than SNC80; also recorded: less resistance to decreasing spare receptors than SNC80 | produced a full concentration-response curve | 67.2% | 73.9% | – | – | – | – | – | Gi pathway agonism, in words ([1]; OPRM): full agonism; EC50 [2]: 2040 nM; EC50 ([6]; OPRD Gi β-CNA (+) EC50 (nM), addition of β-CNA, Example 3, Tables 5-7): 1200 nM; EC50 ([6]; OPRD Gi β-CNA (−) EC50 (nM), no addition of β-CNA, Example 3, Tables 5-7): 1.49 nM |
| C[C@@H](Cc1ccsc1)NC(=O)NC[C@H](Cc1ccc(O)cc1)N(C)C [PZM21, reference compound] | – | – | 0.83 | – | – | – | – | – | – | – | – | more susceptible to decreasing receptor populations than SNC80; also recorded: less resistance to decreasing spare receptors than SNC80 | produced a full concentration-response curve | – | – | 230 nM | 288 nM | 119 nM | – | – | Gi pathway agonism, in words ([2]; OPRD): OPRM, OPRD dual biased agonist; OPRD β-ARR2 Emax (%) ([4]; Example 3, Tables 5-7): 3.41%; OPRD arrestin Emax, % ([4]; Table 1, normalized to reference agonist SNC80): 3.41%; OPRD Gi β-CNA (+) Emax (%) ([6]; addition of β-CNA, Example 3, Tables 5-7): 58.77%; OPRD Gi β-CNA (−) Emax (%) ([6]; no addition of β-CNA, Example 3, Tables 5-7): 95.97% |
| CN1CCc2cc(C(CNC(=O)Nc3ccc(F)cc3)N(C)C)ccc21 (racemic) [Compound 2, 3-[2-(dimethylamino)-2-(1-methyl-2,3-dihydro-1H-indol-5-yl)ethyl]-1-(4-fluorophenyl)urea] | 0.94 | 109% | 1.44 | 92.4% | 15.3% | 15.3% | 4.66% | 4.66% | showed a similar pattern as compared to DAMGO; also recorded: resistant to decreasing spare receptors; also recorded: resistant to decreasing spare receptor-induced tendency | 80.1% | 98.6% | resistant to decreasing spare receptors; also recorded: resistant to decreasing spare receptor-induced tendency | produced a full concentration-response curve | 78.5% | 98.9% | 1050 nM | 2380 nM | 4.98 nM | 1880 nM | 1170 nM | EC50 [5, 19]: 4190 nM; Emax [5, 20]: 77.4%; EC50 [5, 21]: 682 nM; EC50 [5, 22]: 1700 nM; Emax [5, 23]: 103%; EC50 [6, 24]: 6220 nM; Emax [6, 25]: 70.2%; EC50 [6, 26]: 1650 nM; Emax [6, 27]: 100% |
| CN(C)C(CNC(=O)Cc1ccc2c(c1)OCCO2)c1ccccc1 (racemic) [Compound 1, 2-(2,3-dihydro-1,4-benzodioxin-6-yl)-N-[2-(dimethylamino)-2-phenylethyl]acetamide] | 0.99 | 102% | 1.39 | 88.9% | 12.9% | 12.9% | 7.37% | 7.37% | showed a similar pattern as compared to DAMGO | 88.2% | 101% | – | curve was cut due to the X-axis limitation | 108% | 113% | 4160 nM | 9 nM | 4.91 nM | 730 nM | 5860 nM | EC50 [5, 19]: 3880 nM; Emax [5, 20]: 67.5%; EC50 [5, 21]: 2090 nM; EC50 [5, 22]: 1160 nM; Emax [5, 23]: 100%; EC50 [6, 24]: 7870 nM; Emax [6, 25]: 46.6%; EC50 [6, 26]: 8770 nM; Emax [6, 27]: 104% |
| Cc1ccccc1NC(=O)NCC(c1ccc2c(c1)CCO2)N(C)C (racemic) [Compound 3, 3-[2-(2,3-dihydro-1-benzofuran-5-yl)-2-(dimethylamino)ethyl]-1-(2-methylphenyl)urea] | 1.48 | 112% | 1.16 | 94.6% | 12.2% | 12.2% | 1.99% | 1.99% | showed a similar pattern as compared to DAMGO | 91.3% | 97.9% | – | curve was cut due to the X-axis limitation | 50.9% | 106% | 8370 nM | 10600 nM | 4350 nM | 1290 nM | 1580 nM | EC50 [5, 19]: 22.7 nM; Emax [5, 20]: 75.5%; EC50 [5, 21]: 656 nM; EC50 [5, 22]: 36 nM; Emax [5, 23]: 102%; EC50 [6, 24]: 4450 nM; Emax [6, 25]: 48.2%; EC50 [6, 26]: 3630 nM; Emax [6, 27]: 100% |
